Data from patent publication US20260199239A1, “IONIZABLE LIPIDS WITH MALONATE TAILS” (ModernaTX, Inc., priority 2022, published 2026).

Experiments:
[1] = Osmolality of LNP formulation; assay type: physicochemical; details: LNP formulation in 20 mM Tris 8% Sucrose storage buffer
Description: (§1) LNPs comprising ionizable lipids described herein were formulated according to Table 2 and the following general procedure.

[2] = LNP particle size and polydispersity index (PDI); assay type: physicochemical; details: LNP lipid:PEG-1:DSPC:Cholesterol 48:2:11:39, hEPO mRNA, 20 mM Tris 8% Sucrose pH 7.4
Experimental: A Zetasizer Nano ZS (Malvern Instruments Ltd, Malvern, Worcestershire, UK) can be used to determine the particle size, the polydispersity index (PDI) and the zeta potential of the nanoparticle compositions in 1×PBS in determining particle size and 15 mM PBS in determining zeta potential.
LNPs may be characterized by a variety of methods. For example, microscopy (e.g., transmission electron microscopy or scanning electron microscopy) may be used to examine the morphology and size distribution of a nanoparticle composition. Dynamic light scattering or potentiometry (e.g., potentiometric titrations) may be used to measure zeta potentials. Dynamic light scattering may also be utilized to determine particle sizes. Instruments such as the Zetasizer Nano ZS (Malvern Instruments Ltd, Malvern, Worcestershire, UK) may also be used to measure multiple characteristics of a nanoparticle composition, such as particle size, polydispersity index, and zeta potential.
as §1
(§2) General procedure for one-pot LNP formation: Lipid stock solutions in ethanol are mixed with mRNA in 25 mM acetate solution at a 3:1 ratio in a microfluidic mixer. The resulting LNPs, which are at approximately pH 5 and 25% EtOH, are buffer exchanged by dialysis into the storage buffer. The LNP solutions are then concentrated by Amicon® and purified by a 0.2 uM sterile filter.

[3] = Endotoxin content of LNP formulation; details: LNP lipid:PEG-1:DSPC:Cholesterol 48:2:11:39, hEPO mRNA
Description: as §1

[4] = mRNA encapsulation by the LNP (% EE, total mRNA in TX); assay type: physicochemical; details: LNP lipid:PEG-1:DSPC:Cholesterol 48:2:11:39, hEPO mRNA
Experimental: For nanoparticle compositions including an RNA, a QUANT-IT™ RIBOGREEN® RNA assay (Invitrogen Corporation Carlsbad, CA) can be used to evaluate the encapsulation of an RNA by the nanoparticle composition. The samples are diluted to a concentration of approximately 5 μg/mL in a TE buffer solution (10 mM Tris-HCl, 1 mM EDTA, pH 7.5). 50 μL of the diluted samples are transferred to a polystyrene 96 well plate and either 50 μL of TE buffer or 50 μL of a 2% Triton X-100 solution is added to the wells. The plate is incubated at a temperature of 37° C. for 15 minutes. The RIBOGREEN® reagent is diluted 1:100 in TE buffer, and 100 μL of this solution is added to each well. The fluorescence intensity can be measured using a fluorescence plate reader (Wallac Victor 1420 Multilablel Counter; Perkin Elmer, Waltham, MA) at an excitation wavelength of, for example, about 480 nm and an emission wavelength of, for example, about 520 nm. The fluorescence values of the reagent blank are subtracted from that of each of the samples and the percentage of free RNA is determined by dividing the fluorescence intensity of the intact sample (without addition of Triton X-100) by the fluorescence value of the disrupted sample (caused by the addition of Triton X-100).
The efficiency of encapsulation of a therapeutic and/or prophylactic agent describes the amount of therapeutic and/or prophylactic agent that is encapsulated or otherwise associated with an LNP after preparation, relative to the initial amount provided. The encapsulation efficiency is desired to be high (e.g., close to 100%). The encapsulation efficiency may be measured, for example, by comparing the amount of therapeutic and/or prophylactic agent in a solution containing a loaded LNP before and after breaking up the loaded LNP with one or more organic solvents or detergents. Fluorescence may be used to measure the amount of free therapeutic and/or prophylactic agent (e.g., RNA) in a solution. For the loaded LNPs formulated with lipids of the disclosure, the encapsulation efficiency of a therapeutic and/or prophylactic agent is at least 50%, for example 50%, 55%, 60%, 65%, 70%, 75%, 80%, 85%, 90%, 91%, 92%, 93%, 94%, 95%, 96%, 97%, 98%, 99%, or 100%. In some embodiments, the encapsulation efficiency is at least 80%. In some embodiments, the encapsulation efficiency is at least 90%. In some embodiments, the encapsulation efficiency of the therapeutic and/or prophylactic agent is between 80% and 100%.
as §1, §2

pH of LNP formulation = assay type: physicochemical; details: LNP formulation in 20 mM Tris 8% Sucrose storage buffer
Description: as §1

hEPO protein expression = hEPO protein expression in vivo after systemic administration of LNPs; details: Table 3B groups 1A-8A, ratio to L5 LNP
Experimental: In order to monitor how effectively various nanoparticle compositions deliver therapeutic and/or prophylactic agents to targeted cells, different nanoparticle compositions including a particular therapeutic and/or prophylactic agent (for example, a modified or naturally occurring RNA such as an mRNA) are prepared and administered to animal populations. Animals (e.g., mice, rats, or non-human primates) are intravenously, intramuscularly, intraarterially, or intratumorally administered a single dose including a nanoparticle composition comprising a lipid of the disclosure and an mRNA expressing a protein, e.g., human erythropoietin (hEPO) or luciferase. A control composition including PBS may also be employed.
Upon administration of nanoparticle compositions to an animal, dose delivery profiles, dose responses, and toxicity of particular formulations and doses thereof can be measured by enzyme-linked immunosorbent assays (ELISA), bioluminescent imaging, or other methods. For nanoparticle compositions including mRNA, time courses of protein expression can also be evaluated. Samples collected from the animals for evaluation may include blood, sera, and tissue (for example, muscle tissue from the site of an intramuscular injection and internal tissue); sample collection may involve sacrifice of the animals.
ELISA test kits may provide hEPO concentrations in milli International Units per mL (mIU/mL), e.g., per mL of tested serum. Typically, the EPO concentration of unknown sample is calculated from a calibration curve. Standards (used for the calibration curve) are calibrated according to the 2. IRP WHO preparation. In some embodiments, mIU/mL corresponds to […]. Nanoparticle compositions including mRNA are useful in the evaluation of the efficacy and usefulness of various formulations for the delivery of therapeutic and/or prophylactic agents. Higher levels of protein expression induced by administration of a composition including an mRNA will be indicative of higher mRNA translation and/or nanoparticle composition mRNA delivery efficiencies. As the non-RNA components are not thought to affect translational machineries themselves, a higher level of protein expression is likely indicative of a higher efficiency of delivery of the therapeutic and/or prophylactic agent by a given nanoparticle composition relative to other nanoparticle compositions or the absence thereof.
In some embodiments, an in vivo expression assay may be used to assess potency of expression of lipids of the disclosure. In some embodiments, the protein expression (hEPO) may be measured in mice following administration of a nanoparticle comprising a lipid of the disclosure (e.g., a loaded LNP). In some embodiments, lipid nanoparticles of the instant disclosure may be intravenously administered to mice (e.g., CD-1 mice).
In some embodiments, the concentration of hEPO in serum may be tested after administration (e.g., about six hours after injection). In some embodiments, residual levels of the lipids of the disclosure in organs or tissue of the subject after administration (e.g., 6 h, 12 h, 18 h, 24 h, 36h, or 48 h after administration) are measured. In some embodiments, the residual levels of the lipids of the disclosure in the liver are measured. In some embodiments, an in vitro expression assay may be used to assess nanoparticles of the disclosure. In some embodiments, cells (e.g., HeLa) may be plated in an imaging plate (e.g., poly-D-lysine coated) and cultured in serum (e.g., human serum, mouse serum, cynomolgus monkey serum or fetal bovine serum). In some embodiments, lipid nanoparticles of the disclosure comprising an mRNA expressing fluorescent protein (e.g., green fluorescent protein (GFP)) and a fluorescent lipid (e.g., rhodamine-DOPE) may be added to the plate and the plate imaged for uptake and expression. In some embodiments, expression may be evaluated by measuring fluorescence (e.g., from GFP). […]

SMILES | Osmolality (mOsm/kg) [1] | PDI [2] | Size (nm) [2] | Endotoxin (EU/mL) [3] | % EE [4] | pH (pH of LNP formulation) | 6 hr protein expression ratio cf. L5 (hEPO protein expression) | 24 hr protein expression ratio cf. L5 (hEPO protein expression)
CCCCCCCCC(CCCCCCCC)OC(=O)CCCCCCCN(CCCCCCC(C(=O)OCCCCCC)C(=O)OCCCCCC)CCCNC(C)=O [Compound M4, Dihexyl 2-(6-((3-acetamidopropyl)(8-(heptadecan-9-yloxy)-8-oxooctyl)amino)hexyl)malonate] | 321 mOsm/kg | 0.099 | 68.7 nm | 2.6 EU/mL | 92.2% | 7.450 | 0.34 | 0.36
CCCCCCCCC(CCCCCCCC)OC(=O)CCCCCCCN(CCCCCCC(C(=O)OCCCCCC)C(=O)OCCCCCC)CCCNC(=O)CC [Compound M5, Dihexyl 2-(6-((8-(heptadecan-9-yloxy)-8-oxooctyl)(3-propionamidopropyl)amino)hexyl)malonate] | 320 mOsm/kg | 0.496 | 126.7 nm | 2.7 EU/mL | 69.8% | 6.962 | 1.37 | 1.15
CCCCCCCCC(CCCCCCCC)OC(=O)CCCCCCCN(CCCCCCC(C(=O)OCCCCCC)C(=O)OCCCCCC)CCCNC(=O)C1CC1 [Compound M6, Dihexyl 2-(6-((3-(cyclopropanecarboxamido)propyl)(8-(heptadecan-9-yloxy)-8-oxooctyl)amino)hexyl)malonate] | 317 mOsm/kg | 0.418 | 104.9 nm | <2 EU/mL | 67.8% | 7.450 | 0.82 | 0.81
